According to US10231958B2, “Methods and compositions for enhancing chemotherapy” (THE BOARD OF REGENTS OF THE UNIVERSITY OF TEXAS SYSTEM, priority 2015, dated 2019):
Starred links: 1 amine or outer side, 2 acyl side, 3 side chain; linkers in the order of their positions; H or OH if unused. Positions of bridges follow the written chain, without caps; N, C: chain ends. Non-standard residues stand in square brackets, D forms with d. Residues, ends and D or L forms follow the SMILES beside them. Chains are numbered I, II in the order given. Actinocin(9to1) = Cc1c2oc3c(C)ccc(C(=O)[*:1])c3nc-2c(C(=O)[*:2])c(N)c1=O; NMeV = CN[C@H](C(=O)O)C(C)C; Sar = CNCC(=O)O

Columns and labels:
[1] = test system: Intracellular ROS production; assay: Real-time ROS production (DCF assay); format: cell-based; conditions: for ROS production, agent alone: BSO 2.5 mM, CDDP 75 μM, TMZ 1.5 mM, 4HC 75 μM, 12 h
Description: Intracellular ROS production was detected using DCFH-DA probe (Sigma) (Zanotto-Filho et al., 2010, Cancer Lett 288, 192-203). This reagent enters the cells and reacts predominantly with highly oxidizing species of ROS, such as hydroxyl radicals, hydroperoxides, and peroxynitrite, thus producing the fluorophore DCF. Briefly, cells were seeded in black-edge clear bottom 96-well plates. After reaching 70% confluence, medium was changed and cells were incubated with 20 μM DCFH-DA dissolved in medium containing 0.5% FBS. After 1 h pre-incubation to allow DCFH-DA uptake, treatments were added to its respective final concentrations and DCF fluorescence was monitored at 0.5, 1, 3, 8, 12, 16 and 24 h in a fluorescence reader (Ex/Em=485/532 nm). Hydrogen peroxide was used as a positive control and N-acetylcysteine (NAC), GSH-ethyl-ester (GSH-E) and Trolox were used as antioxidant standards. As a control, at the end of 24 h, cell viability was assessed and compared to wells in the absence of DCFH-DA.

IL8, MMP1, MMP3 and PGE2 = assay: ELISA of inflammatory mediators in culture medium; format: cell-based, human; conditions: for production of IL-8, MMP-1 and MMP-3: MDA-MB231 culture medium; for prostaglandin E2 (PGE2) in culture medium and COX-2 protein in lysates: human cancer cells, 12 h
Description: (§1) Quantification of MMP1 and MMP3 content in culture medium was assessed using RayBio-MMP3 and RayBio-MMP1 Elisa Kit (RayBiotech, Inc); IL8 was analyzed by Human IL-8 Elisa kit (Pierce Biotechnology). The levels of prostaglandin E2 (PGE2) were determined using the Prostaglandin E2 EIA Kit Monoclonal (Cayman Chemical Company). Culture media were diluted to fit within the standard curves. For conditioned media (CM) preparation for invasion and in vitro angiogenesis experiments, 12-well plated cells were treated with MMS (or MMS plus inhibitors) for 8 h in the presence of 10% FBS, twice washed with HBSS, and incubated with 700 μL drug/serum-free fresh medium for additional 12 h. Thereafter, the conditioned fresh medium was collected and directly used for migration and invasion experiments in order to reduce freezing associated loss of activity.

[2] = test system: NRF2, GCLC, ER stress markers; assay: Western blot of NRF2, GCLC and ER stress markers; format: cell-based; conditions: for NRF2 and GCLC protein levels: MEFs, MDA-MB231, MCF-7, 8-12 h; for immunocontent of ER stress markers: cancer cells, 24 h; for effect on MMS-induced NRF2 activation: CHX 1 μg/mL, Actinomycin D 5 μg/mL, NAC 7.5 mM
Description: Western blot. Protein lysates were prepared using RIPA buffer containing 5% sodium deoxycholate, 0.1% SDS, 0.1% Igepal in PBS with a cocktail of protease and phosphatase inhibitors (1 mM PMSF, 1 mM sodium orthovanadate, 1 mM NaF, and 30 μL/mL aprotinin (Sigma-Aldrich, USA)) and clarified by centrifugation. Protein concentration was determined using Bradford Protein Assay Reagent (Biorad, Hercules, Calif.). Equal amounts of protein were resolved using 8-12% SDS polyacrylamide gel, transferred onto nitrocellulose membranes (Hybond-ECL, GE Healthcare Lifesciences, Piscataway, N.J.) and detected using Lumiglo system (Cell Signaling Technology, Calif.) and x-ray films. Primary antibodies included COX-2 (#4842), NRF2 (D1C9), p-JNK1/2 (Thr183/Tyr185, #4671), p-p38 (Thr180/Tyr182, #9216), p-ERK1/2 (Thr202/Tyr204, #9101), BiP/GRP78 (C50B12), IRE1a (14C10), CHOP (L63F7) and PERK (D11A8) from Cell Signaling Technology; p-IRE1a (Ser724; NB100-2323) from Novus Biologicals; GCLC (Ab41463), beta-actin (ab8227) and ATF6 (Ab37149) from Abcam; p-PERK (Thr 981, sc-32577) and ATF3 (C19) were purchased from Santa Cruz. All primary antibodies were used at 1:1000 dilutions and secondary antibodies were 1:3000 in TBS-T with 5% BSA.

[3] = test system: NFκB-responsive firefly luciferase construct in MDA-MB231 cells; assay: NFκB gene reporter assay; format: cell-based, human; conditions: MDA-MB231, pre-incubation with inhibitor
Description: (§2) Prior to transfection, cells were plated in 96-well plates to 80-90% confluence (100 μL antibiotic free-medium) after 24 h. When used, siRNA were incubated by reverse transfection during cells seeding. […] A mixture of non-inducible firefly luciferase construct and constitutively expressing Renilla luciferase construct (40:1) were used as negative controls. Approximately 24 h post-transfection, the medium was changed and the cells were treated for 12 h with alkylating agents (with/out 6 h pre-treatments). At the end of this period, medium was changed to drug-free fresh medium (to minimize the effect of alkylating toxicity on promoters activity) and cells were kept for an additional 12 h.

human endothelial cells = assay: In vitro angiogenesis (Angiophase kit, CD31); format: cell-based; conditions: direct incubation
Description: as §1
The Angiophase kit (MBL Inc.) was used to assess the angiogenic potential of conditioned media (CM) from breast cancer cells or the direct effect of pharmaceutical inhibitors (free-drug system) on vessel-like structures formation in vitro. With this kit, human endothelial cells are co-cultured in a specially designed medium to form threadlike tubule structures. These gradually join up to form a network of anastomosing tubules, which resemble the capillary bed found in the CAM assay. Kit-provided cryopreserved co-culture of human endothelial cells were plated and kept for 96 h (proliferative phase) without treatments. Afterwards, the cells were maintained in the presence of conditioned medium from alkylating agent treated cells or control medium for a total of 14 days (angiogenic/vasculogenic phase). Medium was changed each 2 days. At the end of treatments, the cells were fixed and immune-stained for CD31 (PECAM-1), following by incubation with secondary antibody conjugate. ELISA was developed using the soluble substrate p-nitrophenyl-phosphate (p-NPP) whose product was colorimetrically read at 405 nm. After ELISA assays, the wells were washed with dH2O and tubule staining was performed by incubating CD31-stained tubules with the substrate BCIP/NBT, which form insoluble precipitates. Tubules were counted and photographed for qualitative monitoring.

[4] = test system: AP1-responsive firefly luciferase construct in MDA-MB231 cells; assay: AP-1 gene reporter assay; format: cell-based, human; conditions: MDA-MB231, pre-incubation with inhibitor
Description: as §2

[5] = test system: Kc167 cells, MEFs, and MDA-MB231 breast cancer cells; assay: Cell viability (CellTiter-Glo); format: cell-based, D. melanogaster, mouse, human; conditions: pre-incubation, then MMS; all cell types tested; 48 h
Description: The D. melanogaster embryonic cell line Kc167 was grown in Schneider medium (Invitrogen, Carlsbad, Calif.) supplemented with 10% heat-inactivated (56° C./30 min) fetal bovine serum (FBS), penicillin and streptomycin at 22° C. in a humidified incubator. Primary MEFs were obtained by harvesting 14.5-day C57BL/6J embryos as previously described (Ravi et al., 2009, PLoS Genet 5, e1000527). Briefly, fetal liver and head were removed and the remainder of the embryo was mechanically disaggregated in plating medium. A suspension of single-cells was plated in DMEM (plus 10% FBS, 100 U/mL penicillin and 100 μg/mL streptomycin). MEFs were grown for two passages before freezing aliquots. Aliquots were taken and expanded as needed for each experiment. MDA-MB231, SkBr3 and MCF-7 breast cancer cells lines were obtained from ATCC and grown in DMEM supplemented with 10% inactivated FBS plus antibiotics in a 37° C. humidified incubator at […] atmosphere. Cells were kept and treated in the exponential phase of growing (60-70% confluence). […] DMSO concentrations were kept to a maximum of 0.1% for all experiments. Cell viability was assessed using CellTiter-Glo Luminescent Viability assay (Promega) in 384 or 96-well plates white-border clear-bottom plated cells. For caspase-3/7 activity, Caspase-Glo 3/7 Assay kits were used (Promega). For caspase assays, the cells were seeded in 96-well plates and assayed directly after treatments. Caspase-3/7 inhibitor (Z-DEVD-fmk) was used to ensure assay specificity. LDH release into culture medium was quantified by Cytotox-96 Non-Radioactive assay kit in agreement with instructions (Promega).

[6] = test system: MDA-MB231 xenograft implants; assay: MDA-MB231 xenograft study; format: in vivo, mouse
Text: The study was approved by the University of Texas Health Science Center at San Antonio Institutional Animal Care and Use Committee (IACUC) policy as outlined in protocol number 11024. The facility is operated in compliance with the Public Law 89-544 (Animal Welfare Act) and its amendments, Public Health Services Policy on Humane Care and Use of Laboratory Animals (PHS Policy) using the Guide for the Care and Use of Laboratory Animals (Guide) as the basis of operation. Selection of cyclophosphamide and sorafenib doses was based on previously published reports (Sun et al., 2010, J Int Med Res 38, 967-76; Wilhelm et al., 2004 Cancer Res 64, 7099-109). MDA-MB-231 cells were harvested by trypsinization, washed and re-suspended in serum-free medium. Thereafter, cells were mixed with matrigel (1:1), and approximately 5×10^6 cells were subcutaneously injected in the right flank of each mouse. When the average tumor volume reached about 100 mm^3, mice were randomized into groups of 8 animals each, and the following treatment protocol was implemented: Group 1 (control): 100 μL of saline (i.p.); Group 2: sorafenib (1 mg/kg; i.p.) for 9 days; Group 3: cyclophosphamide 0.1 g/kg on days 2, 4, 6 and 8; Group 4: Sorafenib+cyclophosphamide (combination of same above described regimens). All animals were sacrificed 5 days after the end of treatments (15th day of the treatment protocol). Body weight of mice was recorded weekly, and tumor size was measured thrice a week in two dimensions using a digital caliper. The tumor volume was calculated by the formula 0.5236 L1(L2)^2, where L1 is the long axis, and L2 is the short axis of the tumor. At the termination of the study, mice were euthanized; tumors were excised and a part was fixed in 10% phosphate-buffered formalin for H&E, Masson's staining and immunohistochemistry (IHC) analyses.

Compound: O=P1(N(CCCl)CCCl)NC(OO)CCO1 (centres unmarked) [4-HC, 4-hydroperoxycyclophosphamide]
- ROS production, agent alone [1]: increased ROS
- production of IL-8, MMP-1 and MMP-3 (IL8, MMP1, MMP3 and PGE2): increased the production of these molecules
- prostaglandin E2 (PGE2) in culture medium and COX-2 protein in lysates (IL8, MMP1, MMP3 and PGE2): increased levels of prostaglandin E2 (PGE2)
- NRF2 and GCLC protein levels [2]: induced NRF2 and GCLC protein
- immunocontent of ER stress markers [2]: increased the immunocontent of ER stress markers

Compound: Cc1ccc(S(=O)(=O)/C=C/C#N)cc1 [BAY117082]
- effect on MMS-induced activation of NFκB reporter [3]: blocked

Compound: [NH2][Pt]([NH2])([Cl])[Cl] [CDDP, cisplatin]
- ROS production, agent alone [1]: increased ROS
- production of IL-8, MMP-1 and MMP-3 (IL8, MMP1, MMP3 and PGE2): increased the production of these molecules
- prostaglandin E2 (PGE2) in culture medium and COX-2 protein in lysates (IL8, MMP1, MMP3 and PGE2): increased levels of prostaglandin E2 (PGE2)
- NRF2 and GCLC protein levels [2]: induced NRF2 and GCLC protein
- immunocontent of ER stress markers [2]: increased the immunocontent of ER stress markers

Compound: CCCCC[C@H](O)/C=C/[C@H]1[C@H](O)CC(=O)[C@@H]1C/C=C\CCCC(=O)O [PGE2, prostaglandin E2]
- vessel-like structure formation, purified factor (human endothelial cells): angiogenic

Compound: C[S+]([O-])c1ccc(-c2nc(-c3ccc(F)cc3)c(-c3ccncc3)[nH]2)cc1 (centres unmarked) [SB203508]
- effect on MMS-induced activation of NFκB reporter [3]: only blocked the NFκB reporter
- effect on MMS-induced activation of AP-1 reporter [4]: only blocked the NFκB reporter

Compound: O=C1c2ccccc2-c2n[nH]c3cccc1c23 [SP600129]
- effect on MMS-induced activation of AP-1 reporter [4]: blocked

Compound: Cc1c(C)c2c(c(C)c1O)CCC(C)(C(=O)O)O2 (centres unmarked) [Trolox]
- effect on ROS levels ([1]; Trolox 200 μM, NAC 7.5 mM, GSH-E 10 mM): reduced ROS below levels of the control
- effect on MMS toxicity [5]: had no effect

Compound: Cc1c2oc3c(C)ccc(C(=O)N[C@@H]4C(=O)N[C@H](C(C)C)C(=O)N5CCC[C@H]5C(=O)N(C)CC(=O)N(C)[C@@H](C(C)C)C(=O)O[C@@H]4C)c3nc-2c(C(=O)N[C@@H]2C(=O)N[C@H](C(C)C)C(=O)N3CCC[C@H]3C(=O)N(C)CC(=O)N(C)[C@@H](C(C)C)C(=O)O[C@@H]2C)c(N)c1=O [actinomycin D] (I: T[dV]P[Sar][NMeV] / II: T[dV]P[Sar][NMeV]; ester I:1-I:C, II:1-II:C; linker I:N-II:N via Actinocin(9to1))
- effect on MMS-induced NRF2 activation [2]: blocked NRF2 activation

Compound: C[C@@H]1C[C@@H]([C@H](O)CC2CC(=O)NC(=O)C2)C(=O)[C@@H](C)C1 [cycloheximide]
- effect on MMS-induced NRF2 activation [2]: blocked NRF2 activation

Compound: O=P1(N(CCCl)CCCl)NCCCO1 (centres unmarked) [cyclophosphamide]
- collagen deposition (wound healing phenotype) ([6]; cyclophosphamide alone): spreading areas of collagen deposition
- tumor microvessels (histology, CD31) ([6]; cyclophosphamide alone vs untreated): increased number of niches of microvessels
- tumor growth, single agent ([6]; sorafenib 1 mg/kg i.p. 9 days, cyclophosphamide 0.1 g/kg days 2, 4, 6, 8): reduced tumor size

Compound: VEGF
- vessel-like structure formation, purified factor (human endothelial cells): angiogenic
